What all share (format): biochemical
The target of assay [1] is T1, Btk (Homo sapiens, UniProt Q06187).
T1 construct: purified from insect cells as a full-length construct containing a N-terminal 6X-His tag; His6 (N); made in house; host or cells: insect cells (Method C)
In words: Btk in vitro inhibitory activity (one of Method A TR-FRET, Method B electrophoretic mobility shift, Method C radiometric filter binding). In a few lines: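 Three alternative formats were used. A radiometric filter-binding read used 8 nM full-length His-BTK with 0.2 mg/mL poly(Glu-Tyr) 4:1 (C); microfluidic separation of 1 μM FAM-peptide by 1 nM BTK gave IC50 from 12-point curves (B); TR-FRET at Km ATP, 0.5 nM Btk, gave Ki(app)-derived IC50 (A).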

The target in assay [2] is T2, TEC (Homo sapiens, UniProt P42680).
T2 sequence (P42680 1-631): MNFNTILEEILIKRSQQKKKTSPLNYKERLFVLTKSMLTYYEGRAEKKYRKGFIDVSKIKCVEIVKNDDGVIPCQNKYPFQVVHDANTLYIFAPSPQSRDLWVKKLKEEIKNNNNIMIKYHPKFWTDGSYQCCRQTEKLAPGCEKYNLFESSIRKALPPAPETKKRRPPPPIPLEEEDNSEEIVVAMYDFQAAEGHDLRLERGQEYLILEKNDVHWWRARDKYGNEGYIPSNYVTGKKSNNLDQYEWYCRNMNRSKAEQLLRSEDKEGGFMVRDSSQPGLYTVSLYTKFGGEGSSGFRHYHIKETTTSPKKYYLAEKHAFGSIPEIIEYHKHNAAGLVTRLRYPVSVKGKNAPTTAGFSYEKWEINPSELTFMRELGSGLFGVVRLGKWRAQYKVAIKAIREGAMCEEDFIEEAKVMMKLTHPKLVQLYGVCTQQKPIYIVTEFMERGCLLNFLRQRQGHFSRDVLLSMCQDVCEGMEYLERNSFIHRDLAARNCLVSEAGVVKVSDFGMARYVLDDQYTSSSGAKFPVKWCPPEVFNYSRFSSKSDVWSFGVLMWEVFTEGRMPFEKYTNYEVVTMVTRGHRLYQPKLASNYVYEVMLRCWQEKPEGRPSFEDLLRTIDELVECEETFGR
In words: Inhibition of a panel of kinases (in vitro HotSpot kinase assay, 33P-ATP, 1 μM ATP). The following applies: for IC50: HotSpot kinase assay, 1 μM ATP; for TEC/Btk: ratio of TEC IC50 to Btk IC50 (selectivity). Put shortly:
(§1)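 At 1 μM ATP spiked with 33P-ATP, substrate phosphorylation by the purified enzymes gives the extent of inhibition.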

Assay [3] deals with T3, panel of kinases (Homo sapiens, UniProt P51813).
T3 sequence (P51813 1-675): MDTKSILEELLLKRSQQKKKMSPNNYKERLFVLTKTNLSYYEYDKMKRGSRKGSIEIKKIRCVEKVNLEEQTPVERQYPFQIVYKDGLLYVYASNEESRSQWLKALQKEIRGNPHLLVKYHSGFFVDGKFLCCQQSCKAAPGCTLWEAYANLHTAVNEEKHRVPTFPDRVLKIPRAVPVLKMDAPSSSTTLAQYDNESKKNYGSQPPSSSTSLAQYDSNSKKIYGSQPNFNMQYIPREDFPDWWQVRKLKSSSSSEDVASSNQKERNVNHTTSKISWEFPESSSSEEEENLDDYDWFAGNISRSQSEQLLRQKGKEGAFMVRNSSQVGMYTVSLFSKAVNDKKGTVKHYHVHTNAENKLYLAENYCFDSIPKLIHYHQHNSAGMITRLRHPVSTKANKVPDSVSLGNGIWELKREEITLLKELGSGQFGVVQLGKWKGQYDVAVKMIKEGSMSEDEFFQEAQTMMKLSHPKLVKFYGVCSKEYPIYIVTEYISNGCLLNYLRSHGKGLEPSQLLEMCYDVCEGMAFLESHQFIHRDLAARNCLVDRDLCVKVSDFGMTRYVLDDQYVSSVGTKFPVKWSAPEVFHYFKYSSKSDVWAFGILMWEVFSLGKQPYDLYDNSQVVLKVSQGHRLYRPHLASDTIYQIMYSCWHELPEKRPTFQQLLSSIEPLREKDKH
In words: Inhibition of a panel of kinases (in vitro HotSpot kinase assay, 33P-ATP, 1 μM ATP), other kinases. The following applies: BMX wild-type, read-out: BMX-WT IC50. Put shortly:
as §1

The mark [4] stands for this setting: method is one of A, B or C, not stated which, read-out: IC50 values against Btk.
Where [5] appears, read: wild-type Btk, read-out: Btk-WT IC50.

Each structure is given as a SMILES string. Read-outs that look alike come from different tables or passages of the source.

T1 sequence (Q06187 whole entry): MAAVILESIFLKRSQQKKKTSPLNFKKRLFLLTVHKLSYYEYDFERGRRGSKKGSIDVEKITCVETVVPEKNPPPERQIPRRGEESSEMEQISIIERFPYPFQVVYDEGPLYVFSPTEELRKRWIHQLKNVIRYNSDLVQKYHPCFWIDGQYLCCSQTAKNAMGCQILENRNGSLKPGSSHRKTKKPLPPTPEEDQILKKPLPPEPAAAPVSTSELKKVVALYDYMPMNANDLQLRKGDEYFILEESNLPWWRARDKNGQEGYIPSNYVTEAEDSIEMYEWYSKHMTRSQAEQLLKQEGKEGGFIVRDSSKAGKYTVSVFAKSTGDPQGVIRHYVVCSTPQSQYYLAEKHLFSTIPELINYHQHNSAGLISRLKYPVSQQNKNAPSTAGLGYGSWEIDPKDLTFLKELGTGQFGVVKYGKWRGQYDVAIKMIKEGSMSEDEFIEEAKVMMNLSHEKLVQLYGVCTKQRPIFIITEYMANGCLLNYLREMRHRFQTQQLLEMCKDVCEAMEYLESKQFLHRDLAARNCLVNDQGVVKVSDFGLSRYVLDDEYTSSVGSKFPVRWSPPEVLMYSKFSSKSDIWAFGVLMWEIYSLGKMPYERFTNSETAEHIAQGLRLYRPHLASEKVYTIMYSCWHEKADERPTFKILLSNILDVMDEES

As for `CC(C)(C)c1noc(C(=O)NCc2ccc(-c3ccnc4[nH]nc(N[C@H]5CCNC5)c34)cc2F)n1` [Example 162, 3-tert-butyl-N-{[2-fluoro-4-(3-{[(3S)-pyrrolidin-3-yl]amino}-1H-pyraozlo[3,4-b]pyridin-4-yl)phenyl]methyl}-1,2,4-oxadiazole-5-carboxamide], the IC50 in assay [1] (setting [4]) was below 10 nM; in assay [1] (setting [5]), 4.5 nM; in assay [2], 6260 nM; in assay [3], 6050 nM. In assay [2], the TEC/Btk turned out to be 1391.
For `CC(C)N1CC[C@H](Nc2n[nH]c3nccc(-c4ccc(CNC(=O)c5nc(C(C)(C)C)no5)c(F)c4)c23)C1` [Example 163, 3-tert-butyl-N-{[2-fluoro-4-(3-{[(3S)-1-(propan-2-yl)pyrrolidin-3-yl]amino}-1H-pyrazolo[3,4-b]pyridin-4-yl)phenyl]methyl}-1,2,4-oxadiazole-5-carboxamide] the same measures were below 10 nM, 4.78 nM, 9450 nM, above 10000 nM and 1977.
As for `CC(=O)N1CC[C@H](Nc2n[nH]c3nccc(-c4ccc(CNC(=O)c5nc(C(C)(C)C)no5)c(F)c4)c23)C1` [Example 164, N-{[4-(3-{[(3S)-1-acetylpyrrolidin-3-yl]amino}-1H-pyrazolo[3,4-b]pyridin-4-yl)-2-fluorophenyl]methyl}-3-tert-butyl-1,2,4-oxadiazole-5-carboxamide], the IC50 in assay [1] (setting [5]) amounted to 11.3 nM; in assay [2], 8070 nM; in assay [3], 8340 nM. In addition, the TEC/Btk in assay [2] came out at 714.
As for `CC(C)(C)c1nc(C(=O)Nc2cccc(-c3ccnc4[nH]nc(N[C@@H]5CCNC5)c34)c2CO)no1` [Example 165, t-tert-butyl-N-[2-(hydroxymethyl)-3-(3-{[(3R)-pyrrolidin-3-yl]amino}-1H-pyrazolo[3,4-b]pyridin-4-yl)phenyl]-1,2,4-oxadiazole-3-carboxamide], the half-maximal inhibitory concentration (IC50) in assay [1] (setting [5]), in assay [2] and in assay [3] was above 10000 nM in each case. Moreover, the TEC/Btk in assay [2] is on record as above 100.
Regarding `CN1CC[C@H](Nc2n[nH]c3nccc(-c4ccc(CNC(=O)c5nc(C(C)(C)C)no5)c(F)c4)c23)C1` [Example 166, 3-tert-butyl-N-{[2-fluoro-4-(3-{[(3S)-1-methylpyrrolidin-3-yl]amino}-1H-pyrazolo[3,4-b]pyridin-4-yl)phenyl]methyl}-1,2,4-oxadiazole-5-carboxamide], the IC50 is below 10 nM in assay [1] (setting [4]), 3.12 nM in assay [1] (setting [5]), above 10000 nM in assay [2] and above 10000 nM in assay [3]. The TEC/Btk in assay [2] was above 100.
Regarding `CC(C)(C)c1noc(C(=O)NCc2ccc(-c3ccnc4[nH]nc(N[C@H]5CCCNC5)c34)cc2F)n1` [Example 167, 3-tert-butyl-N-{[2-fluoro-4-(3-{[(3S)-piperidin-3-yl]amino}-1H-pyrazolo[3,4-b]pyridin-4-yl)phenyl]methyl}-1,2,4-oxadiazole-5-carboxamide], the IC50 in assay [1] (setting [5]) was 10.7 nM; in assay [2] it was above 10000 nM; in assay [3], above 10000 nM. Further, in assay [2], the TEC/Btk is reported as above 100.
`CC(=O)N1CCC[C@H](Nc2n[nH]c3nccc(-c4ccc(CNC(=O)c5nc(C(C)(C)C)no5)c(F)c4)c23)C1` [Example 168, N-{[4-(3-{[(3S)-1-acetylpiperidin-3-yl]amino}-1H-pyrazolo[3,4-b]pyridin-4-yl)-2-fluorophenyl]methyl}-3-tert-butyl-1,2,4-oxadiazole-5-carboxamide]: the IC50 is 40.3 nM in assay [1] (setting [5]), above 10000 nM in assay [2] and above 10000 nM in assay [3]. In addition, the TEC/Btk in assay [2] is recorded as above 100.
Take `C=CC(=O)N1CCC[C@H](Nc2n[nH]c3nccc(-c4ccc(CNC(=O)c5nc(C(C)(C)C)no5)c(F)c4)c23)C1` [Example 169, 3-tert-butyl-N-{[2-fluoro-4-(3-{[(3S)-1-(prop-2-enoyl)piperidin-3-yl]amino}-1H-pyrazolo[3,4-b]pyridin-4-yl)phenyl]methyl}-1,2,4-oxadiazole-5-carboxamide]: the IC50 in assay [1] (setting [4]) was below 10 nM; in assay [1] (setting [5]), 3.72 nM; in assay [2], 1750 nM; in assay [3], 1820 nM. For the same compound, in assay [2], the TEC/Btk came to 470.
For `CCc1cc(C(=O)NCc2ccc(-c3ccnc4[nH]nc(N[C@@H]5CCCN[C@@H]5C)c34)cc2F)no1` [Example 170, 5-ethyl-N-{[2-fluoro-4-(3-{[(2R,3R)-2-methylpiperidin-3-yl]amino}-1H-pyrazolo[3,4-b]pyridin-4-yl)phenyl]methyl}-1,2-oxazole-3-carboxamide], the IC50 in assay [1] (setting [5]), in assay [2] and in assay [3] was above 10000 nM in each case.
With `CCc1cc(C(=O)NCc2ccc(-c3ccnc4[nH]nc(N[C@@H]5CCCN(C(=O)N(C)C)[C@@H]5C)c34)cc2F)no1` [Example 171, (2R,3R)-3-{[4-(4-{[(5-ethyl-1,2-oxazol-3-yl)formamido]methyl}-3-fluorophenyl)-1H-pyrazolo[3,4-b]pyridin-3-yl]amino}-N,N,2-trimethylpiperidine-1-carboxamide], the concentration for half-maximal inhibition (IC50) in assay [1] (setting [5]) was 559 nM; in assay [2], above 10000 nM; in assay [3], 7790 nM. For the same compound, the TEC/Btk in assay [2] was above 100.
In the same order, the values of `CC(C)c1cc(C(=O)NCc2ccc(-c3ccnc4[nH]nc(N[C@@H]5CCCN[C@@H]5C)c34)cc2F)no1` [Example 172, N-{[2-fluoro-4-(3-{[(2R,3R)-2-methylpiperidin-3-yl]amino}-1H-pyrazolo[3,4-b]pyridin-4-yl)phenyl]methyl}-5-(propan-2-yl)-1,2-oxazole-3-carboxamide] are 436 nM, above 10000 nM, above 10000 nM and above 100.
As to `C=CC(=O)N1CCC[C@@H](Nc2n[nH]c3nccc(-c4ccc(CNC(=O)c5cc(C(C)C)on5)c(F)c4)c23)[C@H]1C` [Example 173, N-{[2-fluoro-4-(3-{[(2R,3R)-2-methyl-1-(prop-2-enoyl)piperidin-3-yl]amino}-1H-pyrazolo[3,4-b]pyridin-4-yl)phenyl]methyl}-5-(propan-2-yl)-1,2-oxazole-3-carboxamide], the IC50 in assay [1] (setting [4]) was below 10 nM; in assay [1] (setting [5]) it was 0.104 nM; in assay [2] it was 9 nM; in assay [3], 6 nM. For the same compound, the TEC/Btk in assay [2] came out at 83.
`CC(C)(C)c1nc(C(=O)NCc2ccc(-c3ccnc4[nH]nc(N[C@@H]5CCNC5)c34)cc2)no1` [Example 174, 5-tert-butyl-N-{[4-(3-{[(3R)-pyrrolidin-3-yl]amino}-1H-pyrazolo[3,4-b]pyridin-4-yl)phenyl]methyl}-1,2,4-oxadiazole-3-carboxamide]: the IC50 in assay [1] (setting [5]) is 32.7 nM; in assay [2], above 10000 nM; in assay [3], above 10000 nM. The TEC/Btk in assay [2] is above 100.
Take `C=CC(=O)N1CC[C@@H](Nc2n[nH]c3nccc(-c4ccc(CNC(=O)c5noc(C(C)(C)C)n5)cc4)c23)C1` [Example 175, 5-tert-butyl-N-{[4-(3-{[(3R)-1-(prop-2-enoyl)pyrrolidin-3-yl]amino}-1H-pyrazolo[3,4-b]pyridin-4-yl)phenyl]methyl}-1,2,4-oxadiazole-3-carboxamide]: the IC50 is below 10 nM in assay [1] (setting [4]), 0.189 nM in assay [1] (setting [5]), 55 nM in assay [2] and 201 nM in assay [3]. For the same compound, the TEC/Btk in assay [2] worked out at 289.

Values taken from patent US20180194762A1 (Pharmacyclics LLC, priority 2017, published 2018).
